# Measurements reported in patent publication US10597388B2, “Pyridazinone herbicides” (FMC CORPORATION, priority 2014, dated 2020).
# How the values were obtained:
# Assay in all cases: Test E greenhouse herbicide test, pre- and postemergence
# Assay type in all cases: in vivo
# [1] = tested on: dayflower (Virginia (VA) dayflower, Commelina virginica)
# Outline: (§1)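 Visual rating vs untreated controls, 0 = no effect, 100 = complete control, after 14–21 d greenhouse. Pre: seeded silt loam treated with surfactant-containing solvent formulation. Post: 1–4-leaf plants (2–18 cm) in peat/vermiculite medium.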
# [2] = tested on: field bindweed (Convolvulus arvensis)
# Outline: as §1
# [3] = tested on: crabgrass, large (large crabgrass, Digitaria sanguinalis); details: Preemergence
# Outline: as §1
# [4] = tested on: Italian ryegrass (Lolium multiflorum)
# Outline: as §1
# [5] = tested on: horseweed (Conyza canadensis)
# Outline: as §1
# [6] = tested on: nutsedge, yellow (yellow nutsedge, Cyperus esculentus); details: Preemergence
# Outline: as §1
# [7] = tested on: momingglory (Ipomoea coccinea); details: Preemergence
# Outline: as §1
# [8] = tested on: foxtail, green (green foxtail, Setaria viridis); details: Preemergence
# Outline: as §1
# [9] = tested on: waterhemp (common waterhemp, Amaranthus rudis)
# Outline: as §1
# [10] = tested on: barnyardgrass (Echinochloa crus-galli)
# Outline: as §1
# [11] = 62 g ai/ha, Postemergence, scale 0 to 100 (0 no effect, 100 complete control)
# [12] = 62 g ai/ha, Preemergence, scale 0 to 100 (0 no effect, 100 complete control)
# [13] = 125 g ai/ha, Postemergence, scale 0 to 100 (0 no effect, 100 complete control)
# [14] = 125 g ai/ha, Preemergence, scale 0 to 100 (0 no effect, 100 complete control)
# [15] = Postemergence, 16 g ai/ha, visual, scale 0 no effect to 100 complete control
# [16] = Postemergence, 31 g ai/ha, visual, scale 0 no effect to 100 complete control
# [17] = Preemergence, 16 g ai/ha, scale 0 to 100, 0 no effect, 100 complete control
# [18] = Preemergence, 31 g ai/ha, scale 0 to 100, 0 no effect, 100 complete control
# [19] = 62 g ai/ha, scale 0 to 100 (0 no effect, 100 complete control)
# [20] = 125 g ai/ha, scale 0 to 100 (0 no effect, 100 complete control)
# [21] = 16 g ai/ha, scale 0 to 100, 0 no effect, 100 complete control
# [22] = 31 g ai/ha, scale 0 to 100, 0 no effect, 100 complete control
# [23] = 250 g ai/ha, Postemergence, scale 0 to 100 (0 no effect, 100 complete control)
# [24] = Preemergence, 250 g ai/ha, visual, scale 0 no effect to 100 complete control
# [25] = 250 g ai/ha, visual, scale 0 no effect to 100 complete control
compound,measurement,setting,value
CCC(=O)Oc1c(C)nn(C)c(=O)c1-c1c(C)sc2ccc(Cl)cc12 [Compound 109],"Plant response rating, Dayflower, VA",[1]; [11],50
same,"Plant response rating, Dayflower, VA",[1]; [12],25
same,"Plant response rating, Dayflower, VA",[1]; [13],60
same,"Plant response rating, Dayflower, VA",[1]; [14],25
same,"Plant response rating, Dayflower, VA",[1]; [15],30
same,"Plant response rating, Dayflower, VA",[1]; [16],30
same,"Plant response rating, Dayflower, VA",[1]; [17],0
same,"Plant response rating, Dayflower, VA",[1]; [18],25
same,"Plant response rating, Field Bindweed",[2]; [11],95
same,"Plant response rating, Field Bindweed",[2]; [12],40
same,"Plant response rating, Field Bindweed",[2]; [13],90
same,"Plant response rating, Field Bindweed",[2]; [14],80
same,"Plant response rating, Field Bindweed",[2]; [15],75
same,"Plant response rating, Field Bindweed",[2]; [16],80
same,"Plant response rating, Field Bindweed",[2]; [17],0
same,"Plant response rating, Field Bindweed",[2]; [18],0
same,"Plant response rating, Crabgrass, Large",[3]; [19],40
same,"Plant response rating, Crabgrass, Large",[3]; [20],35
same,"Plant response rating, Crabgrass, Large",[3]; [21],0
same,"Plant response rating, Crabgrass, Large",[3]; [22],0
same,"Plant response rating, Ryegrass, Italian",[4]; [11],90
same,"Plant response rating, Ryegrass, Italian",[4]; [13],85
same,"Plant response rating, Ryegrass, Italian",[4]; [14],98
same,"Plant response rating, Ryegrass, Italian",[4]; [15],50
same,"Plant response rating, Ryegrass, Italian",[4]; [16],75
same,"Plant response rating, Ryegrass, Italian",[4]; [17],60
same,"Plant response rating, Ryegrass, Italian",[4]; [18],75
same,"Plant response rating, Horseweed",[5]; [11],90
same,"Plant response rating, Horseweed",[5]; [12],100
same,"Plant response rating, Horseweed",[5]; [13],85
same,"Plant response rating, Horseweed",[5]; [14],100
same,"Plant response rating, Horseweed",[5]; [15],60
same,"Plant response rating, Horseweed",[5]; [16],80
same,"Plant response rating, Horseweed",[5]; [17],0
same,"Plant response rating, Horseweed",[5]; [18],100
same,"Plant response rating, Nutsedge, Yellow",[6]; [20],40
same,"Plant response rating, Nutsedge, Yellow",[6]; [21],0
same,"Plant response rating, Nutsedge, Yellow",[6]; [22],0
same,"Plant response rating, Morningglory",[7]; [20],65
same,"Plant response rating, Morningglory",[7]; [21],0
same,"Plant response rating, Morningglory",[7]; [22],0
same,"Plant response rating, Foxtail, Green",[8]; [19],40
same,"Plant response rating, Foxtail, Green",[8]; [20],60
same,"Plant response rating, Foxtail, Green",[8]; [21],0
same,"Plant response rating, Foxtail, Green",[8]; [22],0
same,"Plant response rating, Waterhemp",[9]; [13],90
same,"Plant response rating, Waterhemp",[9]; [14],98
same,"Plant response rating, Waterhemp",[9]; [15],60
same,"Plant response rating, Waterhemp",[9]; [16],75
same,"Plant response rating, Waterhemp",[9]; [17],0
same,"Plant response rating, Waterhemp",[9]; [18],0
same,"Plant response rating, Barnyardgrass",[10]; [11],30
same,"Plant response rating, Barnyardgrass",[10]; [12],10
same,"Plant response rating, Barnyardgrass",[10]; [13],40
same,"Plant response rating, Barnyardgrass",[10]; [14],25
same,"Plant response rating, Barnyardgrass",[10]; [15],25
same,"Plant response rating, Barnyardgrass",[10]; [16],30
same,"Plant response rating, Barnyardgrass",[10]; [17],0
same,"Plant response rating, Barnyardgrass",[10]; [18],0
CC(=O)Oc1c(C)nn(C)c(=O)c1-c1c(C)cc(C)c2ccccc12 [Compound 153],"Plant response rating, Dayflower, VA",[1]; [11],90
same,"Plant response rating, Dayflower, VA",[1]; [12],85
same,"Plant response rating, Dayflower, VA",[1]; [13],90
same,"Plant response rating, Dayflower, VA",[1]; [14],90
same,"Plant response rating, Dayflower, VA",[1]; [23],95
same,"Plant response rating, Dayflower, VA",[1]; [16],85
same,"Plant response rating, Dayflower, VA",[1]; [18],80
same,"Plant response rating, Dayflower, VA",[1]; [24],90
same,"Plant response rating, Field Bindweed",[2]; [11],90
same,"Plant response rating, Field Bindweed",[2]; [12],100
same,"Plant response rating, Field Bindweed",[2]; [13],100
same,"Plant response rating, Field Bindweed",[2]; [14],100
same,"Plant response rating, Field Bindweed",[2]; [23],95
same,"Plant response rating, Field Bindweed",[2]; [16],80
same,"Plant response rating, Field Bindweed",[2]; [18],90
same,"Plant response rating, Field Bindweed",[2]; [24],100
same,"Plant response rating, Crabgrass, Large",[3]; [19],70
same,"Plant response rating, Crabgrass, Large",[3]; [20],75
same,"Plant response rating, Crabgrass, Large",[3]; [22],70
same,"Plant response rating, Crabgrass, Large",[3]; [25],80
same,"Plant response rating, Ryegrass, Italian",[4]; [11],90
same,"Plant response rating, Ryegrass, Italian",[4]; [13],90
same,"Plant response rating, Ryegrass, Italian",[4]; [14],100
same,"Plant response rating, Ryegrass, Italian",[4]; [23],95
same,"Plant response rating, Ryegrass, Italian",[4]; [16],85
same,"Plant response rating, Ryegrass, Italian",[4]; [18],100
same,"Plant response rating, Ryegrass, Italian",[4]; [24],100
same,"Plant response rating, Horseweed",[5]; [11],80
same,"Plant response rating, Horseweed",[5]; [12],100
same,"Plant response rating, Horseweed",[5]; [13],85
same,"Plant response rating, Horseweed",[5]; [14],100
same,"Plant response rating, Horseweed",[5]; [23],85
same,"Plant response rating, Horseweed",[5]; [16],85
same,"Plant response rating, Horseweed",[5]; [18],90
same,"Plant response rating, Horseweed",[5]; [24],100
same,"Plant response rating, Nutsedge, Yellow",[6]; [20],80
same,"Plant response rating, Nutsedge, Yellow",[6]; [22],50
same,"Plant response rating, Nutsedge, Yellow",[6]; [25],95
same,"Plant response rating, Morningglory",[7]; [20],90
same,"Plant response rating, Morningglory",[7]; [22],85
same,"Plant response rating, Morningglory",[7]; [25],100
same,"Plant response rating, Foxtail, Green",[8]; [19],75
same,"Plant response rating, Foxtail, Green",[8]; [20],90
same,"Plant response rating, Foxtail, Green",[8]; [22],50
same,"Plant response rating, Foxtail, Green",[8]; [25],95
same,"Plant response rating, Waterhemp",[9]; [13],50
same,"Plant response rating, Waterhemp",[9]; [14],85
same,"Plant response rating, Waterhemp",[9]; [23],75
same,"Plant response rating, Waterhemp",[9]; [16],50
same,"Plant response rating, Waterhemp",[9]; [18],60
same,"Plant response rating, Waterhemp",[9]; [24],100
same,"Plant response rating, Barnyardgrass",[10]; [11],40
same,"Plant response rating, Barnyardgrass",[10]; [12],50
same,"Plant response rating, Barnyardgrass",[10]; [13],50
same,"Plant response rating, Barnyardgrass",[10]; [14],70
same,"Plant response rating, Barnyardgrass",[10]; [23],80
same,"Plant response rating, Barnyardgrass",[10]; [16],25
same,"Plant response rating, Barnyardgrass",[10]; [18],20
same,"Plant response rating, Barnyardgrass",[10]; [24],90
